For 23 compounds, IC50 results are on record in US20230117324A1, “OXAZINE MONOACYLGLYCEROL LIPASE (MAGL) INHIBITORS” (Hoffmann-La Roche Inc., priority 2018, published 2023).

Structures are written as SMILES.

The test concerns the target T1, MAGL (recombinant wild-type) (Homo sapiens, UniProt Q99685).
T1 sequence (Q99685 1-303): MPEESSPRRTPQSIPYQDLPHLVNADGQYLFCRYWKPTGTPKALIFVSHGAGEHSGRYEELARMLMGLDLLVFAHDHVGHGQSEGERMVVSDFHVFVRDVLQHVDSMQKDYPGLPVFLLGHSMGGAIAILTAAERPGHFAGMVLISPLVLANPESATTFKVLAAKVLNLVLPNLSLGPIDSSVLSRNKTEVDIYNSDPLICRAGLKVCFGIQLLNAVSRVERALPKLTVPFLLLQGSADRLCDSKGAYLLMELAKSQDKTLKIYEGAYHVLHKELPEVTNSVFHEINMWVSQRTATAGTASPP
The test is described as follows: MAGL inhibition, 4-NPA assay (hydrolysis of 4-nitrophenylacetate, absorbance at 405 nm). The note with it: 4-NPA assay (footnote [a]: values not marked [b]). The class given is biochemical. How it is done: Compounds were profiled for MAGL inhibitory activity by measuring the enzymatic activity of MAGL by following the hydrolysis of 4-nitrophenylacetate resulting in 4-nitrophenol, which absorbs at 405-412 nm (G. G. Muccioli, G. Labar, D. M. Lambert, Chem. Bio. Chem. 2008, 9, 2704-2710). This assay is hereinafter abbreviated “4-NPA assay”.
The assay was carried out in 384 well assay plates (black with clear bottom, non-binding surface treated, Corning Ref. 3655) in a total volume of 40 μL. Compound dilutions were made in 100% DMSO (VWR Chemicals 23500.297) in a polypropylene plate in 3-fold dilution steps to give a final concentration range in the assay from 25 μM to 1.7 nM. 1 μL compound dilutions (100% DMSO) were added to 19 μL MAGL (recombinant wild-type) in assay buffer (50 mM TRIS (GIBCO, 15567-027), 1 mM EDTA (Fluka, 03690-100 mL)). The plate was shaked for 1 min at 2000 rpm (Variomag Teleshake) and then incubated for 15 min at RT. To start the reaction, 20 μL 4-Nitrophenlyacetate (Sigma N-8130) in assay buffer with 6% EtOH was added. The final concentrations in the assay were 1 nM MAGL and 300 μM 4-Nitrophenylacetate. After shaking (1 min, 2000 rpm) and 5 min incubation at RT, the absorbance at 405 nm was measured for a first time (Molecular Devices, SpectraMax Paradigm). A second measurement was then done after incubation for 80 min at RT. From the two measurements, the slope was calculated by subtracting the first from the second measurement.
Take `O=C1CO[C@H]2CCN(C(=O)N3CCC(C(c4ccccc4)c4ccccc4)CC3)C[C@H]2N1` (racemic) [Example 1, rac-(4aR,8aS)-6-(4-Benzhydrylpiperidine-1-carbonyl)-4,4a,5,7,8,8a-hexahydropyrido[4,3-b][1,4]oxazin-3-one]: the IC50 (commonly the point on the concentration scale where inhibition reaches its midpoint) was 3 nM. Consider `O=C1CO[C@H]2CCN(C(=O)N3CCC(c4cn(CC5CC5)c5ccc(Cl)cc45)CC3)C[C@H]2N1` (racemic) [Example 2, rac-(4aR,8aS)-6-(4-(5-Chloro-1-(cyclopropylmethyl)-1H-indol-3-yl)piperidine-1-carbonyl)hexahydro-2H-pyrido[4,3-b][1,4]oxazin-3(4H)-one], for which the IC50 was found to be 2 nM.

Take `Cn1cc(C2CCN(C(=O)N3CC[C@@H]4OCC(=O)N[C@@H]4C3)CC2)c2cc(Cl)ccc21` (racemic) [Example 3, rac-(4aR,8aS)-6-(4-(5-Chloro-1-methyl-1H-indol-3-yl)piperidine-1-carbonyl)hexahydro-2H-pyrido[4,3-b][1,4]oxazin-3(4H)-one]: the IC50 is 3 nM. On to `O=C1CO[C@H]2CCN(C(=O)N3CCC(C4c5ccccc5-c5ccccc54)CC3)C[C@H]2N1` (racemic) [Example 4, rac-(4aR,8aS)-6-(4-(9H-Fluoren-9-yl)piperidine-1-carbonyl)hexahydro-2H-pyrido[4,3-b][1,4]oxazin-3(4H)-one], for which the IC50 was found to be 5 nM. The result for `COCCC(c1ccc(F)cc1)C1CCN(C(=O)N2CC[C@@H]3OCC(=O)N[C@@H]3C2)CC1` (mixture of isomers) [Example 6, rac-(4aR,8aS)-6-(4-(1-(4-Fluorophenyl)-3-methoxypropyl)piperidine-1-carbonyl)hexahydro-2H-pyrido[4,3-b][1,4]oxazin-3(4H)-one] reads 15 nM. In the case of `O=C1CO[C@H]2CCN(C(=O)N3CCC(c4c[nH]c5cc(F)ccc45)CC3)C[C@H]2N1` (racemic) [Example 7, rac-(4aR,8aS)-6-[4-(6-Fluoro-1H-indol-3-yl)piperidine-1-carbonyl]-4,4a,5,7,8,8a-hexahydropyrido[4,3-b][1,4]oxazin-3-one] it was 43 nM; in that of `COC(c1ccc(F)cc1)C1CCN(C(=O)N2CC[C@@H]3OCC(=O)N[C@@H]3C2)CC1` (mixture of isomers) [Example 8, rac-(4aR,8aS)-6-(4-((4-Fluorophenyl)(methoxy)methyl)piperidine-1-carbonyl)hexahydro-2H-pyrido[4,3-b][1,4]oxazin-3(4H)-one], 91 nM. For `O=C1CO[C@H]2CCN(C(=O)N3CCC(c4noc5ccc(F)cc45)CC3)C[C@H]2N1` (racemic) [Example 9, rac-(4aR,8aS)-6-(4-(5-Fluorobenzo[d]isoxazol-3-yl)piperidine-1-carbonyl)hexahydro-2H-pyrido[4,3-b][1,4]oxazin-3(4H)-one], the IC50 was 644 nM. In the case of `O=C1CO[C@H]2CCN(C(=O)N3CCN([C@H](c4ccccc4)c4ccc(Cl)cc4)CC3)C[C@H]2N1` (racemic) [Example 10, rac-(4aR,8aS)-6-(4-(rac-(4-Chlorophenyl)(phenyl)methyl)piperazine-1-carbonyl)hexahydro-2H-pyrido[4,3-b][1,4]oxazin-3(4H)-one] it was 5 nM; in that of `O=C1CO[C@H]2CCN(C(=O)N3CCN(C(c4ccc(F)cc4)c4ccc(F)cc4)CC3)C[C@H]2N1` (racemic) [Example 12, rac-(4aR,8aS)-6-[4-[bis(4-Fluorophenyl)methyl]piperazine-1-carbonyl]-4,4a,5,7,8,8a-hexahydropyrido[4,3-b][1,4]oxazin-3-one], 12 nM. The result for `O=C1CO[C@H]2CCN(C(=O)N3CCN(c4c[nH]c5ccc(Cl)cc45)CC3)C[C@H]2N1` (racemic) [Example 14, rac-(4aR,8aS)-6-(4-(5-Chloro-1H-indol-3-yl)piperazine-1-carbonyl)hexahydro-2H-pyrido[4,3-b][1,4]oxazin-3(4H)-one] reads 133 nM; that for `CC(c1ccccc1)N1CCN(C(=O)N2CC[C@@H]3OCC(=O)N[C@@H]3C2)CC1` (mixture of isomers) [Example 15, rac-(4aR,8aS)-6-(4-(1-Phenylethyl)piperazine-1-carbonyl)hexahydro-2H-pyrido[4,3-b][1,4]oxazin-3(4H)-one], 3000 nM; that for `Cn1ncc2cc(C3CCN(C(=O)N4CC[C@@H]5OCC(=O)N[C@@H]5C4)CC3)ccc21` (racemic) [Example 16, rac-(4aR,8aS)-6-(4-(1-Methyl-1H-indazol-5-yl)piperidine-1-carbonyl)hexahydro-2H-pyrido[4,3-b][1,4]oxazin-3(4H)-one], 1500 nM. In the case of `O=C1CO[C@@H]2CCN(C(=O)N3CCN([C@@H](c4ccccc4)c4ccc(F)cc4)CC3)C[C@@H]2N1` (racemic) [Example 17, rac-(4aR,8aS)-6-[4-[rac-(4-Fluorophenyl)-phenylmethyl]piperazine-1-carbonyl]-4,4a,5,7,8,8a-hexahydropyrido[4,3-b][1,4]oxazin-3-one] it was 6 nM; in that of `N#C/C(=C\N1CCN(C(=O)N2CC[C@@H]3OCC(=O)N[C@@H]3C2)CC1)c1ccccc1` (racemic) [Example 18, (E/Z)-3-[4-[rac-(4aS,8aR)-3-oxo-4,4a,5,7,8,8a-hexahydropyrido[4,3-b][1,4]oxazine-6-carbonyl]piperazin-1-yl]-2-phenylprop-2-enenitrile], 2100 nM.

For `O=C1CO[C@H]2CCN(C(=O)N3CCC(c4cn(C(CO)CCl)c5ccc(Cl)cc45)CC3)C[C@H]2N1` (mixture of isomers) [Example 20, rac-(4aR,8aS)-6-(4-(5-Chloro-1-(1-chloro-3-hydroxypropan-2-yl)-1H-indol-3-yl)piperidine-1-carbonyl)hexahydro-2H-pyrido[4,3-b][1,4]oxazin-3(4H)-one], the IC50 worked out at 2 nM. As for `O=C1CO[C@H]2CCN(C(=O)N3CCC(C(CCO)c4ccc(F)cc4)CC3)C[C@H]2N1` (mixture of isomers) [Example 26, rac-cis-6-(4-(1-(4-Fluorophenyl)-3-hydroxypropyl)piperidine-1-carbonyl)hexahydro-2H-pyrido[4,3-b][1,4]oxazin-3(4H)-one], the IC50 was found to be 33 nM. In the case of `CC(c1ccc(C(F)(F)F)cc1)C1CCN(C(=O)N2CC[C@@H]3OCC(=O)N[C@@H]3C2)CC1` (mixture of isomers) [Example 27, (4aR,8aS)-6-(4-(1-(4-(Trifluoromethyl)phenyl)ethyl)piperidine-1-carbonyl)hexahydro-2H-pyrido[4,3-b][1,4]oxazin-3(4H)-one] it was 5 nM; in that of `CC(Oc1ccc(F)cc1Cl)C1CCN(C(=O)N2CC[C@@H]3OCC(=O)N[C@@H]3C2)CC1` (mixture of isomers) [Example 28, rac-(4aR,8aS)-6-(4-(1-(2-Chloro-4-fluorophenoxy)ethyl)piperidine-1-carbonyl)hexahydro-2H-pyrido[4,3-b][1,4]oxazin-3(4H)-one], 2 nM; in that of `O=C1CO[C@H]2CCN(C(=O)N3CCC(c4c[nH]c5cc(F)ccc45)CC3)C[C@H]2N1` (relative stereo) [Example 5, (+)-cis-6-[4-(6-Fluoro-1H-indol-3-yl)piperidine-1-carbonyl]-4,4a,5,7,8,8a-hexahydropyrido[4,3-b][1,4]oxazin-3-one], 14 nM. The result for `O=C1CO[C@H]2CCN(C(=O)N3CCN(C(c4ccc(F)cc4)c4ccc(F)cc4)CC3)C[C@H]2N1` (relative stereo) [Example 11, (+)-cis-6-(4-(bis(4-Fluorophenyl)methyl)piperazine-1-carbonyl)hexahydro-2H-pyrido[4,3-b][1,4]oxazin-3(4H)-one] reads 8 nM; that for `O=C1CO[C@H]2CCN(C(=O)N3CCC(c4cn(C5COC5)c5ccc(Cl)cc45)CC3)C[C@H]2N1` (relative stereo) [Example 22, (+)- or (−)-cis-6-(4-(5-Chloro-1-(oxetan-3-yl)-1H-indol-3-yl)piperidine-1-carbonyl)hexahydro-2H-pyrido[4,3-b][1,4]oxazin-3(4H)-one], 2 nM; that for `O=C1CO[C@H]2CCN(C(=O)N3CCC(c4cn(C5CC5)c5ccc(Cl)cc45)CC3)C[C@H]2N1` (single isomer, unassigned) [Example 19, (+)-or (−)-cis-6-(4-(5-Chloro-1-cyclopropyl-1H-indol-3-yl)piperidine-1-carbonyl)hexahydro-2H-pyrido[4,3-b][1,4]oxazin-3(4H)-one], 1 nM.
